Laboratory results reported in patent US11124476B2, “Tunable nitric oxide-releasing macromolecules having multiple nitric oxide donor structures” (The University of North Carolina at Chapel Hill, priority 2011, dated 2021).

Test: NO release from NO-releasing co-condensed silica, Nitric Oxide Analyzer, physiological condition
Format: physicochemical
Procedure: A variety of single and multi-donor co-condensed silica macromolecules were synthesized. […] FIGS. 8A and 8B illustrate the same release profiles with normalized maximum NO concentration. FIG. 8B illustrates the same release profiles, with normalized maximum NO concentration, as FIG. 8A, but is an expanded view of the release profiles. All release profiles were collected with a Nitric Oxide Analyzer under physiological condition at pH=7.4 and 37° C.
To make NO-releasing co-condensed silica with programmed release profile, the different silane diazeniumdiolate monomer solutions were mixed at the pre-set ratios. The mixture is then added into a flask with pre-cooled ethanol with nitrogen protection. The mixture is further cooled to −15° C. and pre-set amount of backbone silane (TEOS or TMOS) is added. When the mixture temperature equilibriums to −15° C., the ammonium hydroxide aqueous solution is added. The reaction is then warmed rapidly to 15° and stirred for additional 3 hours. The content is then filtered. The solid is washed with dry ethanol twice and then dried extensively.

For CCCCCCCCCCCCNCCCCCCN(CCCCCCCCCCCC)/[N+]([O-])=N/O [MAP3 diazeniumdiolate], the “duration of NO release” value was “only a few minutes”.
